Experimental findings from patent US4690944A, “Homocysteine thiolactone derivatives, process for the preparation thereof and pharmaceutical compositions therefrom” (Chiesi Farmaceutici S.p.A., priority 1985, dated 1987) are described below.

Data set [1] deals with porcine gastric mucine. Description: "In vitro" mucolytic activity (viscoelasticity of porcine gastric mucine). The class given is biochemical. As to conditions: 0.2 ml of 10% DMSO solution of compound in 1.8 ml of 6% mucine, 25° C., 30 minutes, 0.075 Hz. Here is the method: Control samples were similarly added with the vehicle only. After incubation at 25° C. for 30 minutes, the analysis of the rheologic characteristics was carried out by means of Contraves Low-Shear 30 sinus viscosimeter endowed with oscillating device for the study of the viscoelasticity. The dynamic measurements of the viscoelasticity were carried out at a single frequency (0.075 Hz), using an appropriate concentrical cylinder measurement system, particularly suited for bronchial mucus (Contraves MS-LS 1-1).
The rheogramm was recorded on X/Y Rikadenki 11T recorder and the […] determination was carried out by means of vectorial calculation.
The percent decreases versus control samples, reported in Table 1, were determined from the means of the values of said parameters (at least 7 replications per sample).

The subject of data set [2] is respiratory tract. Description: Mucosecretodynamic activity, "in vivo" fluorescein test. As to conditions: Mus musculus, po; male mice, p.o., 90 minutes before i.v. fluorescein; excretion increase versus controls. The procedure:
The compounds, dissolved or suspended in 20 ml/kg of a 0.2% Tween® 80 aqueous suspension, were administered orally 90 minutes before the intravenous injection of 1% (5 ml/kg) fluorescein. Animals treated p.o. with the only vehicle were used as a control group. After 30 minutes from the fluorescein injection the animals were killed and subjected to incannulation of the trachea. Then the respiratory tract was washed and the spectrophotometric dosage of the fluorescein was carried out against phosphate buffer on the so collected eluate, suitably diluted with phosphate buffer and centrifugated.
The amount of fluorescein was determined by means of a calibration curve prepared in the same experimental conditions and the excretion expressed as ng/hour/10 g body weight. For each experimental session the percent increases of excretion versus controls were calculated.

Data set [3] in a line: Toxicity after single administration (acute toxicity, oral). As to conditions: mouse, in vivo, mice, p.o., death-rate after 7 days, read-out: Acute toxicity LD50 approx. The procedure: IVA:NMRI (SPF) mice, fasted for 18 hours before treatment with water ad libitum, have been used. The compounds, dissolved or suspended in a 0.2% Tween® 80 aqueous solution, have been administered orally, at constant concentration (10%). According to the death-rate observed after 7 days from treatment, the approximate LD50 values, reported in Table 1, have been interpolated on Probits chart.

Bounds are passed on as bounds.

Broadly, the ED50 is the dose that gives a 50% effect, or the effect in half of the subjects. Higher therefore signals a need for a large dose. What is called LD50 is the dose at which mortality reaches 50%.

As for `O=C(O)c1ccccc1C(=O)NC1CCSC1=O` (centres unmarked) [II, 2-[[N-(tetrahydro-2-oxo-3-thienyl)amino]carbonyl]benzoic acid], in data set [1], the “"in vitro" % decrease elasticity (G')” value came out at 23% and the “"in vitro" % decrease viscosity (.eta.)” value is 45%. Also, the 50% effect level in data set [2] (ED50) was put at a dose of 340 mg/kg. The median lethal dose (LD50) at 168 h in data set [3] was greater than 4000 mg/kg.

With `CC(=O)N[C@@H](CS)C(=O)O` [N-acetyl-L-cysteine, N--acetyl-L-cysteine, reference compound], in data set [1], the “"in vitro" % decrease elasticity (G')” value came out at 39% and the “"in vitro" % decrease viscosity (.eta.)” value is given as 53%. In addition, it took a dose of 1300 mg/kg to reach the 50% effect level in data set [2] (ED50). The 50% lethal dose (LD50) at 168 h in data set [3] was found to be 4400 mg/kg.

For the molecule `NC(CSCC(=O)O)C(=O)O` (centres unmarked) [S-carboxymethyl-cysteine, S--carboxymethyl-cysteine, reference compound], in data set [2], the 50% effect level (ED50) was put at a dose of 1900 mg/kg. The 50% lethal dose (LD50) at 168 h in data set [3] is greater than 4000 mg/kg.

Regarding `O=C1SCCC1NC(=O)C1C2C=CC(C2)C1C(=O)O` (centres unmarked) [IV, 3-[[N-(Tetrahydro-2-oxo-3-thienyl)amino]-carbonyl]bicyclo[2,2,1]-ept-5-ene-2-carboxylic acid], in data set [1], the “"in vitro" % decrease elasticity (G')” value is 32% and the “"in vitro" % decrease viscosity (.eta.)” value was 43%. This molecule also showed a 50% effective dose (ED50) in data set [2] of 25 mg/kg. Also, the LD50 at 168 h in data set [3] was greater than 4000 mg/kg.
